Laboratory results reported in publication PMC4004266, “Understanding the Structural Requirements for Activators of the Kef Bacterial Potassium Efflux System” (Biochemistry, 2014).
Several values for one entry are separate records, joined by “and”; a condition that tells them apart may be missing. Equal values may be shown once. Entries after “also recorded” stand apart in the source; their conditions may differ.

Assays:
SdKefQCTD [1] = biological target: T1, SdKefQCTD (Shewanella denitrificans, UniProt Q12SB3); assay: Qualitative fluorescence competition assay with DNGSH (FB:FL ratio); type: binding, Shewanella denitrificans OS217; settings: 1 mM competing ligand, 6 μM SdKefQCTD, 5 μM DNGSH, 525 nm
T1 sequence (Q12SB3 entry or part of it): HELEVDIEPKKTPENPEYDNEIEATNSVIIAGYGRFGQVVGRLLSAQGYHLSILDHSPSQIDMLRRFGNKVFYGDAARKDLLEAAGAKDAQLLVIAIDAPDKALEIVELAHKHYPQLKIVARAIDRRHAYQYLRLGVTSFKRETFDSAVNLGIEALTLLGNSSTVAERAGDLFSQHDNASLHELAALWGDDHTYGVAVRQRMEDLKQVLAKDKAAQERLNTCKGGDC

SdKefQCTD [2] = biological target: T1, SdKefQCTD; assay: Quantitative fluorescence competition experiment using DNGSH as probe (emission peak); type: binding, Shewanella denitrificans OS217; settings: for no. of sites (n): competition with DNGSH, sites per subunit
SdKefQCTD [3] = biological target: T1, SdKefQCTD; assay: Isothermal titration calorimetry (ITC); type: binding, Shewanella denitrificans OS217; settings: for no. of sites (n): sites per subunit
SdKefQCTD [4] = biological target: T1, SdKefQCTD; assay: Differential scanning fluorimetry (DSF); type: binding, Shewanella denitrificans OS217; settings: 1 mM ligand, relative to protein alone
SdKef = assay: Whole cell potassium efflux assay; type: cell-based, Shewanella denitrificans OS217; settings: for K+ efflux (activation of Kef): E. coli MJF335 transformed with wild-type SdKef, grown with GSH, electrophile 0.5 mM
Method: Potassium efflux experiments were performed as described previously.[7] Potassium efflux was measured, using an ion selective potassium electrode (ELIT 8031, Nico2000) and a lithium acetate reference electrode (ELIT 003n) with a four-channel ion analyzer (ELIT4), in 2 s intervals. Freshly transformed cells [either E. coli MJF335 cells lacking KefB, KefC, and GshA or MJF645 cells (lacking KefF and KefG in addition to KefB, KefC, and GshA)] were cultured in K115 minimal medium, containing 1 mM GSH, at 37 °C to an OD650 of ∼0.8–1.[11] The cells were filtered and washed with K10 buffer before being suspended in 5 mL of potassium-free K0 buffer. The cells were added to 30 mL of K0 medium in a stirred vessel held at 37 °C with equilibrated electrodes inserted. After 5 min, the electrophile was added to a final concentration of 0.5 mM [except for methylglyoxal (MG), which was added at a concentration of 0.8 mM[6]]. Rate constants were obtained by fitting exponentials to the change in potassium concentration after addition of the electrophile using Origin version 8.0 (Originlab).[7]

SdKefQCTD Q419K mutant = assay: DNGSH titration to Q419K mutant (background binding), emission peak; parameters: species or system Shewanella denitrificans OS217; settings: titration of DNGSH to 7 μM SdKefQCTD Q419K
SdKefQCTD [5] = biological target: T1, SdKefQCTD; assay: Steady state fluorescence anisotropy titration of DNGSH; type: binding, Shewanella denitrificans OS217
Method: (§1) Measurements were performed in buffer C, using a 100 μL cuvette with 3 mm excitation and emission path lengths (Hellma GmbH & Co.) at 20 °C and an Edinburgh Instruments FLS920 spectrometer. Samples containing SdKefQCTD and DNGSH were excited at 340 nm, and emission spectra were measured from 395 to 670 nm. The steady state fluorescence anisotropy was measured with excitation at 340 nm and emission between 540 and 560 nm. Competition experiments were performed using samples pretreated with excess DNGSH, at a 2× protein concentration, and titrated with the ligand under study.
The data were fit using a standard saturation isotherm (see the Supporting Information for further information). For DNGSH fluorescence, λL was measured directly and found to be 572.5 nm. […]
(§2) Analysis of ligand binding by fluorescence spectroscopy. […]
(§3) The conservation of mass for SdKefQCTD is given by n[M]0 = [M] + [ML] where the total concentration of SdKefQCTD subunits is [M]0, n is the number of active binding sites per M, [L]0 is the total concentration of ligand and the concentration of free ligand is [L]. […] If these expressions are substituted into equation 1, a quadratic equation for the protein-ligand complex [ML] is obtained that can be solved for [ML] and expressed as the fraction of bound ligand, fB (equation 2). […]
Two fluorescence parameters were used to obtain fB from experimental data. […]

SdKefQCTD [6] = biological target: T1, SdKefQCTD; assay: Direct titration of DNGSH, fluorescence emission peak position (λmax); type: binding, Shewanella denitrificans OS217
Method: as §1
The data were fit using a standard saturation isotherm (see the Supporting Information for further information). For DNGSH fluorescence, λL was measured directly and found to be 572.5 nm. Inverse titrations with high SdKefQCTD concentrations allowed a good estimation of the emission maximum for the bound form (λML) as 530 nm with a quantum yield (Q) of 4. These three parameters were kept fixed during the fitting while Kd and n were optimized. […]
as §2, §3
Two fluorescence parameters were used to obtain fB from experimental data. The peak position in the emission spectrum, λmax, was obtained by fitting a skewed Gaussian to the experimental spectra as described earlier (1). λmax was used as it was less easily disturbed than fluorescence intensity. Secondly, steady state fluorescence anisotropy, robs, was used. […]
sums depending on the fluorescence intensity of the bound and free ligand, IML and […]

[7] = biological target: SdKefQCTD (soluble construct of the cytosolic regulatory domain of Kef from Shewanella denitrificans OS217, including the Q-linker) (Shewanella denitrificans OS217); assay: static multiangle light scattering; purified SdKefQCTD in solution; unpublished observations of the authors; 52.0 ± 2.5 kDa particles against 26.4 kDa per monomer
[8] = emission peak, competition with DNGSH (Kd 6 μM used for DNGSH)
[9] = ITC, 25 °C, one-site model, read-out: Kd

## CC(C)(C)N1C(=O)CC(SCC(NC(=O)CCC(N)C(=O)O)C(=O)NCC(=O)O)C1=O (stereo not shown) [Compound 5, N-tert-butylsuccinimido-S-glutathione]
SdKefQCTD [1]
  DNGSHbound:DNGSHligand ratio of fluorescence (FB:FL), Kef binding: greatest Kef affinity
SdKefQCTD [2]; [8]
  Kd: 0.4 ± 0.2 µM
SdKefQCTD [2]; emission peak
  no. of sites (n): 0.7 ± 0.2
SdKefQCTD [3]; [9]
  Kd: 6.7 ± 0.27 µM
SdKefQCTD [3]; ITC
  no. of sites (n): 0.41 ± 0.04
SdKefQCTD [4]
  change in protein melting temperature (ΔTm): greatest ΔTm

## N[C@@H](CCC(=O)N[C@@H](CSC1CC(=O)CC1=O)C(=O)NCC(=O)O)C(=O)O (stereo partly shown) [Compound 8]
SdKefQCTD [1]
  DNGSHbound:DNGSHligand ratio of fluorescence (FB:FL), Kef binding: reduced binding affinity for Kef

## N[C@@H](CCC(=O)N[C@@H](CSC1CCCC1=O)C(=O)NCC(=O)O)C(=O)O (stereo partly shown) [Compound 9]
SdKefQCTD [1]
  DNGSHbound:DNGSHligand ratio of fluorescence (FB:FL), Kef binding: reduced binding affinity for Kef
SdKef
  K+ efflux (activation of Kef): no activation of K^+ efflux

## CCCCCC(=O)CCSC[C@H](NC(=O)CC[C@H](N)C(=O)O)C(=O)NCC(=O)O [Compound 12]
SdKefQCTD [2]; [8]
  Kd: 4.4 ± 0.5 µM
SdKefQCTD [2]; emission peak
  no. of sites (n): 0.81 ± 0.05

## O=C1C=CC(=O)N1Cc1ccccc1 [Compound 16]
SdKef
  K+ efflux (activation of Kef): caused significant K^+ release

## O=C1C=CC(=O)N1C1CCCCC1 [Compound 17, N-cyclohexylmaleimide]
SdKef
  K+ efflux (activation of Kef): causes rapid K^+ efflux

## C=CC(=O)CCCCC [Compound 22, 1-octen-3-one]
SdKef
  K+ efflux (activation of Kef): less effective at causing K^+ release; also recorded: causes little K^+ efflux

## CN(C)c1cccc2c(S(=O)(=O)NCCCSC[C@H](NC(=O)CC[C@H](N)C(=O)O)C(=O)NCC(=O)O)cccc12 [DNGSH, S-{[5-(dimethylamino)naphthalen-1-yl]sulfonylaminopropyl} glutathione]
SdKefQCTD Q419K mutant
  binding to Q419K mutant: unable to bind
SdKefQCTD [5]
  Kd: 8 ± 2 µM
SdKefQCTD [5]; fluorescence anisotropy, sites per subunit
  no. of sites (n): 1.1 ± 0.8
SdKefQCTD [3]
  Kd: 19 ± 6 µM
SdKefQCTD [3]; ITC
  no. of sites (n): 0.7 ± 0.1 and 0.7 ± 0.2
SdKefQCTD [6]
  Kd: 6 ± 2 µM
SdKefQCTD [6]; DNGSH binding
  Hill coefficient (nH): 1
SdKefQCTD [6]; emission peak, active binding sites per subunit
  no. of sites (n): 0.6 ± 0.2

## CCN1C(=O)CC(SCC(NC(=O)CCC(N)C(=O)O)C(=O)NCC(=O)O)C1=O (stereo not shown) [ESG, N-ethylsuccinimido-S-glutathione, reference compound]
SdKefQCTD [1]
  DNGSHbound:DNGSHligand ratio of fluorescence (FB:FL), Kef binding: high FB:FL ratios
SdKefQCTD [2]; [8]
  Kd: 12 ± 3 µM
SdKefQCTD [2]; emission peak
  no. of sites (n): 0.7 ± 0.2
SdKefQCTD [3]; [9]
  Kd: 23 ± 4 µM
SdKefQCTD [3]; ITC
  no. of sites (n): 0.38 ± 0.05

## N[C@@H](CCC(=O)N[C@@H](CS)C(=O)NCC(=O)O)C(=O)O [GSH, glutathione, reference compound]
SdKefQCTD [1]
  DNGSHbound:DNGSHligand ratio of fluorescence (FB:FL), Kef binding: low FB:FL ratios
SdKefQCTD [2]
  Kd: 900 ± 200 µM
SdKefQCTD [2]; emission peak
  no. of sites (n): 0.83 ± 0.04
SdKefQCTD [3]; could not be analyzed, data not shown
  ITC signal on titration: Only small signals
SdKefQCTD [4]
  change in protein melting temperature (ΔTm): negligible change

## CCN1C(=O)C=CC1=O [NEM, N-ethylmaleimide]
SdKef; SdKef expressed in E. coli strain lacking KefFC and KefGB (MJF645), after addition of electrophile
  rate constant for K+ efflux: high rate constant for K^+ efflux

## SdKefQCTD (soluble construct of the cytosolic regulatory domain of Kef from Shewanella denitrificans OS217, including the Q-linker) (domain or fragment)
[7]
  stoichiometry N: 2 subunits
